{"source": "patent US12138256B2", "about": "“Treatment of cardiopulmonary disorders” (Bayer Aktiengesellschaft, priority 2021, dated 2024)", "key": {"[1]": {"system": "unilateral broncho-occlusion in anesthetized minipigs", "test": "Unilateral broncho-occlusion minipig model: arterial oxygenation as proxy of VQ-mismatch, intrapulmonary selectivity (C-2.3)", "assay_type": "in vivo", "details": "for % decrease delta PAP (maximal hypoxic PAP) / % increase AUCSaO2 (unwanted desaturation effect): mean, n = 4", "procedure": "These effects were more pronounced 90 min after inhalation of comparative example 11 (second intervention cycles (inhal)). […] Thus, the mean % changes in maximal hypoxic PAP and associated % changes in area under the oxygen saturation curve [AUCSaO2] were compared (see FIG. 65) within the respective group. As reference cycles in each group, we used cycle 3 for the inhaled applications as well as cycle 4 for the i.v. applications."}, "[2]": {"system": "total specific airway resistance (sRaw)", "test": "Phase I, healthy male subjects, 7 days inhalation: total specific airway resistance sRaw by bodyplethysmography (C-4.1)", "assay_type": "in vivo, human", "procedure": "Healthy White male subjects, aged 18 to 45 years and with a body mass index (BMI) above/equal 18.5 and below/equal 29.9 kg/m2 were treated in a clinical pharmacological phase I study on seven days with inhaled once daily doses of 480 μg or 1000 μg or 2000 μg (2 capsules of 1000 μg) (nominal dose) of dry powder formulations of example 2 or Placebo. The subjects inhaled the drug powder from capsules (see under D-1, e.g. tables 22 and 23) inserted into a handheld inhalation device by one deep inhalative breath. The dry powder formulation of the drug is dispersed into the airstream and fine particles are transported into the deep parts of the lung where it is intended to cause a vasodilation of the blood vessels in PH patients for a substantial reduction of increased blood pressure in the central pulmonary blood vessels in PAH patients or other subtypes of PH. This effect cannot be shown in subjects with healthy lungs. In addition inhaled drug causes a dilation of the bronchial airways and thus also improves disease states of lung diseases in PH patients with pathological bronchoconstriction. This effect was measured via bodyplethysmography as reduction of Specific Airway Resistance in healthy subjects. After the deep inhalative breath the subjects hold breath for 2 seconds, so that the dry powder drug condenses from the airstream onto the surface of the deeper lung areas where it is deposited close to its site of intended pharmacological action. The drug dissolutes over the day and equilibrates the lung via lining fluid."}}, "data": [{"smiles": "O=C(O)c1ccc(CCN(CCc2ccccc2OCc2ccc(-c3ccc(C(F)(F)F)cc3)cc2Cl)[C@H]2CCCc3nc(C(=O)O)ccc32)cc1", "note": "[comparative example 11, (5S)-5-{[2-(4-carboxyphenyl)ethyl][2-(2-{[3-chloro-4′-(trifluoromethyl)[biphenyl]-4-yl]methoxy}phenyl)ethyl]amino}-5,6,7,8-tetrahydroquinoline-2-carboxylic acid]", "values": [{"measurement": "time of maximal effects after inhalation", "setting": "[1]; 100 μg/kg nominal dose inhaled", "result": 90, "unit": "min"}, {"measurement": "% decrease delta PAP (maximal hypoxic PAP)", "setting": "[1]; Inhalation I, Cycle 5", "result": 1.8, "unit": "%"}, {"measurement": "% increase AUCSaO2 (unwanted desaturation effect)", "setting": "[1]; Inhalation I, Cycle 5", "result": "−18.6", "unit": "%"}, {"measurement": "% decrease delta PAP (maximal hypoxic PAP)", "setting": "[1]; Inhalation II, Cycle 6", "result": "−19.6", "unit": "%"}, {"measurement": "% increase AUCSaO2 (unwanted desaturation effect)", "setting": "[1]; Inhalation II, Cycle 6", "result": "−39.4", "unit": "%"}, {"measurement": "hypoxia-induced increases in mean pulmonary artery pressure (mPAP)", "setting": "[1]; after inhaled (cycle 6) as well as i.v. application (cycles 7 and 8)", "result": "effectively reduced"}, {"measurement": "BP", "setting": "[1]; i.v. application, 30 μg/kg and 100 μg/kg", "result": "expected drop in BP"}, {"measurement": "desaturation area (AUCSaO2)", "setting": "[1]; inhaled application, 100 μg/kg nominal dose", "result": "did not increase desaturation area"}, {"measurement": "% decrease delta PAP (maximal hypoxic PAP)", "setting": "[1]; iv Bolus 30 μg", "result": "−23.8", "unit": "%"}, {"measurement": "% increase AUCSaO2 (unwanted desaturation effect)", "setting": "[1]; iv Bolus 30 μg", "result": 48.1, "unit": "%"}, {"measurement": "% decrease delta PAP (maximal hypoxic PAP)", "setting": "[1]; iv Bolus 100 μg", "result": "−14.3", "unit": "%"}, {"measurement": "% increase AUCSaO2 (unwanted desaturation effect)", "setting": "[1]; iv Bolus 100 μg", "result": 282.8, "unit": "%"}, {"measurement": "desaturation area (AUCSaO2)", "setting": "[1]; systemic (i.v.) application, 30 and 100 μg/kg", "result": "dose dependent increase in desaturation area"}]}, {"smiles": "O=C(O)c1ccc(CCN(CCc2ccccc2OCc2ccc(-c3ccc(C(F)(F)F)cc3)cc2Cl)[C@H]2CCCc3nc(C(=O)O)ccc32)cc1", "note": "[example 2, (5S)-{[2-(4-Carboxyphenyl)ethyl][2-(2-{[3-chloro-4′-(trifluoromethyl)biphenyl-4-yl]methoxy}phenyl)-ethyl]amino}-5,6,7,8-tetrahydroquinoline-2-carboxylic acid]", "values": [{"measurement": "total specific airway resistance, mean ± SD", "setting": "[2]; 480 μg, 0 D 00 H 00 M", "result": "1.078 ± 0.375", "unit": "kPa/sec"}, {"measurement": "total specific airway resistance, mean ± SD", "setting": "[2]; 480 μg, 0 D 02 H 00 M", "result": "0.839 ± 0.182", "unit": "kPa/sec"}, {"measurement": "total specific airway resistance, mean ± SD", "setting": "[2]; 480 μg, 0 D 06 H 00 M", "result": "0.800 ± 0.187", "unit": "kPa/sec"}, {"measurement": "total specific airway resistance, mean ± SD", "setting": "[2]; 480 μg, 2 D 02 H 00 M", "result": "0.883 ± 0.310", "unit": "kPa/sec"}, {"measurement": "total specific airway resistance, mean ± SD", "setting": "[2]; 480 μg, 4 D 02 H 00 M", "result": "0.807 ± 0.200", "unit": "kPa/sec"}, {"measurement": "total specific airway resistance, mean ± SD", "setting": "[2]; 480 μg, 6 D 04 H 00 M", "result": "0.798 ± 0.193", "unit": "kPa/sec"}, {"measurement": "total specific airway resistance, mean ± SD", "setting": "[2]; 480 μg, 7 D 00 H 00 M", "result": "0.823 ± 0.274", "unit": "kPa/sec"}, {"measurement": "total specific airway resistance, mean ± SD", "setting": "[2]; 480 μg, 7 D 02 H 00 M", "result": "0.777 ± 0.282", "unit": "kPa/sec"}, {"measurement": "total specific airway resistance, mean ± SD", "setting": "[2]; 480 μg, 7 D 06 H 00 M", "result": "0.803 ± 0.280", "unit": "kPa/sec"}, {"measurement": "total specific airway resistance, mean ± SD", "setting": "[2]; 480 μg, SCREENING", "result": "0.844 ± 0.327", "unit": "kPa/sec"}, {"measurement": "total specific airway resistance, mean ± SD", "setting": "[2]; 480 μg, SCREENING 2", "result": "0.832 ± 0.280", "unit": "kPa/sec"}, {"measurement": "total specific airway resistance, mean ± SD", "setting": "[2]; 480 μg, −0 D 18 H 00 M (pretreatment day)", "result": "0.921 ± 0.305", "unit": "kPa/sec"}, {"measurement": "total specific airway resistance, mean ± SD", "setting": "[2]; 480 μg, −0 D 22 H 00 M (pretreatment day)", "result": "0.928 ± 0.392", "unit": "kPa/sec"}, {"measurement": "total specific airway resistance, mean ± SD", "setting": "[2]; 480 μg, −1 D 00 H 00 M (pretreatment day)", "result": "0.939 ± 0.344", "unit": "kPa/sec"}, {"measurement": "total specific airway resistance, mean ± SD", "setting": "[2]; 1000 μg, 0 D 00 H 00 M", "result": "0.967 ± 0.233", "unit": "kPa/sec"}, {"measurement": "total specific airway resistance, mean ± SD", "setting": "[2]; 1000 μg, 0 D 02 H 00 M", "result": "0.859 ± 0.143", "unit": "kPa/sec"}, {"measurement": "total specific airway resistance, mean ± SD", "setting": "[2]; 1000 μg, 0 D 06 H 00 M", "result": "0.824 ± 0.180", "unit": "kPa/sec"}, {"measurement": "total specific airway resistance, mean ± SD", "setting": "[2]; 1000 μg, 2 D 02 H 00 M", "result": "0.797 ± 0.141", "unit": "kPa/sec"}, {"measurement": "total specific airway resistance, mean ± SD", "setting": "[2]; 1000 μg, 4 D 02 H 00 M", "result": "0.853 ± 0.172", "unit": "kPa/sec"}, {"measurement": "total specific airway resistance, mean ± SD", "setting": "[2]; 1000 μg, 6 D 04 H 00 M", "result": "0.787 ± 0.168", "unit": "kPa/sec"}, {"measurement": "total specific airway resistance, mean ± SD", "setting": "[2]; 1000 μg, 7 D 00 H 00 M", "result": "0.917 ± 0.227", "unit": "kPa/sec"}, {"measurement": "total specific airway resistance, mean ± SD", "setting": "[2]; 1000 μg, 7 D 02 H 00 M", "result": "0.764 ± 0.140", "unit": "kPa/sec"}, {"measurement": "total specific airway resistance, mean ± SD", "setting": "[2]; 1000 μg, 7 D 06 H 00 M", "result": "0.787 ± 0.188", "unit": "kPa/sec"}, {"measurement": "total specific airway resistance, mean ± SD", "setting": "[2]; 1000 μg, SCREENING", "result": "0.867 ± 0.376", "unit": "kPa/sec"}, {"measurement": "total specific airway resistance, mean ± SD", "setting": "[2]; 1000 μg, SCREENING 2", "result": "1.009 ± 0.340", "unit": "kPa/sec"}, {"measurement": "total specific airway resistance, mean ± SD", "setting": "[2]; 1000 μg, −0 D 18 H 00 M (pretreatment day)", "result": "0.901 ± 0.187", "unit": "kPa/sec"}, {"measurement": "total specific airway resistance, mean ± SD", "setting": "[2]; 1000 μg, −0 D 22 H 00 M (pretreatment day)", "result": "0.903 ± 0.255", "unit": "kPa/sec"}, {"measurement": "total specific airway resistance, mean ± SD", "setting": "[2]; 1000 μg, −1 D 00 H 00 M (pretreatment day)", "result": "0.996 ± 0.194", "unit": "kPa/sec"}, {"measurement": "total specific airway resistance, mean ± SD", "setting": "[2]; 2000 μg, 0 D 00 H 00 M", "result": "0.947 ± 0.143", "unit": "kPa/sec"}, {"measurement": "total specific airway resistance, mean ± SD", "setting": "[2]; 2000 μg, 0 D 02 H 00 M", "result": "0.677 ± 0.139", "unit": "kPa/sec"}, {"measurement": "total specific airway resistance, mean ± SD", "setting": "[2]; 2000 μg, 0 D 06 H 00 M", "result": "0.651 ± 0.149", "unit": "kPa/sec"}, {"measurement": "total specific airway resistance, mean ± SD", "setting": "[2]; 2000 μg, 2 D 02 H 00 M", "result": "0.748 ± 0.155", "unit": "kPa/sec"}, {"measurement": "total specific airway resistance, mean ± SD", "setting": "[2]; 2000 μg, 4 D 02 H 00 M", "result": "0.709 ± 0.178", "unit": "kPa/sec"}, {"measurement": "total specific airway resistance, mean ± SD", "setting": "[2]; 2000 μg, 6 D 04 H 00 M", "result": "0.722 ± 0.168", "unit": "kPa/sec"}, {"measurement": "total specific airway resistance, mean ± SD", "setting": "[2]; 2000 μg, 7 D 00 H 00 M", "result": "0.844 ± 0.097", "unit": "kPa/sec"}, {"measurement": "total specific airway resistance, mean ± SD", "setting": "[2]; 2000 μg, 7 D 02 H 00 M", "result": "0.716 ± 0.089", "unit": "kPa/sec"}, {"measurement": "total specific airway resistance, mean ± SD", "setting": "[2]; 2000 μg, 7 D 06 H 00 M", "result": "0.730 ± 0.151", "unit": "kPa/sec"}, {"measurement": "total specific airway resistance, mean ± SD", "setting": "[2]; 2000 μg, SCREENING", "result": "0.899 ± 0.150", "unit": "kPa/sec"}, {"measurement": "total specific airway resistance, mean ± SD", "setting": "[2]; 2000 μg, SCREENING 2", "result": "0.957 ± 0.140", "unit": "kPa/sec"}, {"measurement": "total specific airway resistance, mean ± SD", "setting": "[2]; 2000 μg, −0 D 18 H 00 M (pretreatment day)", "result": "0.943 ± 0.245", "unit": "kPa/sec"}, {"measurement": "total specific airway resistance, mean ± SD", "setting": "[2]; 2000 μg, −0 D 22 H 00 M (pretreatment day)", "result": "0.933 ± 0.165", "unit": "kPa/sec"}, {"measurement": "total specific airway resistance, mean ± SD", "setting": "[2]; 2000 μg, −1 D 00 H 00 M (pretreatment day)", "result": "0.962 ± 0.266", "unit": "kPa/sec"}, {"measurement": "decrease of total specific airway resistance sRaw compared to baseline", "setting": "[2]; 6 h after first dosing, all dose groups", "result": "−0.142 to −0.296", "unit": "kPa/sec"}]}]}
